According to US11684067B2, “Generation of peroxyformic acid through polyhydric alcohol formate” (priority 2014, dated 2023):
Read-outs that look alike come from different tables or passages of the source.

Key:
[1] = cited from earlier work
Various pathogens = assay type: cell-based
[2] = test system: Aspergillus brasiliensis ATCC 16404; assay: Fungicidal/yeasticidal activity of ester PFA versus POAA (Example 22); assay type: cell-based; details: for Average CFU/mL / Log10 Growth / Log10 Reduction: 20°C, dirty
Description: (§1) Canidia and Aspergillus pathogens were used to evaluate the micro efficacy of ester PFA generated according to methods of the present invention in comparison to POAA.

[3] = test system: Candida albicans ATCC 10231; assay: as above; assay type: cell-based; details: for Average CFU/mL / Log10 Growth / Log10 Reduction: 20°C, dirty
Description: as §1

[4] = Laundry disinfection efficacy, EPA protocol on 100% cotton carriers (Table 38); assay type: cell-based; details: pH 7.7, 500 ppm hard water; for Log survivors (CFU/carrier) / Log reduction: 18 ppm, 40° C., 5 minute exposure; for Log survivors (CFU/carrier): cotton carriers; for Log reduction: vs water control
Experimental: The microbial efficacy of peroxyformic acid was also tested following the EPA protocol on 100% cotton carriers against a water control. The test conditions were pH 7.7, 500 ppm hard water, 40° C. and 5 minute exposure time. In comparison, the performance of peracetic acid was also tested under the same conditions.

[5] = 200 ppm PFA pH 6.15 / 245 ppm POAA pH 6.56, 5 minutes
[6] = 200 ppm PFA pH 6.15 / 245 ppm POAA pH 6.56, 10 minutes
[7] = 200 ppm PFA pH 6.15 / 245 ppm POAA pH 6.56, 15 minutes
[8] = 300 ppm PFA pH 6.21 / 368 ppm POAA pH 6.63, 5 minutes
[9] = 300 ppm PFA pH 6.21 / 368 ppm POAA pH 6.63, 10 minutes
[10] = Klebsiella pneumoniae ATCC 4352
[11] = Staphylococcus aureus ATCC 6538

O=COO [PFA, peroxyformic acid]
pKa value [1]: 7.2 | Result (Various pathogens; EN 13624, 450 ppm PFA pH 6-7, Aspergillus brasiliensis ATCC 1604, passing requirement 4 log reduction): PASS | Result (Various pathogens; EN 13624, 450 ppm PFA pH 6-7, Canidia albicans ATCC 10231, passing requirement 4 log reduction): PASS | Result (Various pathogens; EN 13704, 450 ppm PFA pH 6-7, Bacillus subtilis ATCC 6633, passing requirement 3 log reduction): PASS | Result (Various pathogens; EN 13727, 450 ppm PFA pH 6-7, Enterococcus hirae ATCC 10541, passing requirement 5 log reduction): PASS | Result (Various pathogens; EN 13727, 450 ppm PFA pH 6-7, P. aeruginosa ATCC 15442, passing requirement 5 log reduction): PASS | Result (Various pathogens; EN 13727, 450 ppm PFA pH 6-7, Staph Aureus ATCC 6538, passing requirement 5 log reduction): PASS | Result (Various pathogens; pH 6): PASS | reduction in A. brasiliensis conidio spores compared with POAA ([2]; 5, 10 and 15 minutes, lower actives, FIG. 19): improved reduction | Average CFU/mL [2, 5]: 1.60E+04 CFU/mL | Log10 Growth [2, 5]: 4.20 Log10 | Log10 Reduction [2, 5]: 1.54 Log10 | Average CFU/mL [2, 6]: 1.75E+03 CFU/mL | Log10 Growth [2, 6]: 3.24 Log10 | Log10 Reduction [2, 6]: 2.50 Log10 | Average CFU/mL [2, 7]: 3.85E+02 CFU/mL | Log10 Growth [2, 7]: 2.59 Log10 | Log10 Reduction [2, 7]: 3.16 Log10 | Average CFU/mL [2, 8]: 4.10E+02 CFU/mL | Log10 Growth [2, 8]: 2.61 Log10 | Log10 Reduction [2, 8]: 3.13 Log10 | Average CFU/mL [2, 9]: 1.20E+02 CFU/mL | Log10 Growth [2, 9]: 2.08 Log10 | Log10 Reduction [2, 9]: 3.67 Log10 | reduction in C. albicans compared with POAA ([3]; 5, 10 and 15 minutes, lower actives, FIG. 18): equivalent reduction | Average CFU/mL [3, 5]: <140 CFU/mL | Log10 Growth [3, 5]: <2.15 Log10 | Log10 Reduction [3, 5]: >4.14 Log10 | Average CFU/mL [3, 6]: <140 CFU/mL | Log10 Growth [3, 6]: <2.15 Log10 | Log10 Reduction [3, 6]: >4.14 Log10 | Average CFU/mL [3, 7]: <140 CFU/mL | Log10 Growth [3, 7]: <2.15 Log10 | Log10 Reduction [3, 7]: >4.14 Log10 | Average CFU/mL [3, 8]: <140 CFU/mL | Log10 Growth [3, 8]: <2.15 Log10 | Log10 Reduction [3, 8]: >4.14 Log10 | Average CFU/mL [3, 9]: <140 CFU/mL | Log10 Growth [3, 9]: <2.15 Log10 | Log10 Reduction [3, 9]: >4.14 Log10 | Log survivors (CFU/carrier) [4, 10]: <1.00 log10 CFU/carrier | Log reduction [4, 10]: >5.12 | Log survivors (CFU/carrier) [4, 11]: 1.63 log10 CFU/carrier | Log reduction [4, 11]: 5.22 | kill compared with peracetic acid ([4]; 40°C, 5 minute, less than half of the dose of peracetic acid): significant better kill than peracetic acid
